# What was measured:
# [1] = system: fresh red roses; assay: Cut flower life test: 5 fresh red roses per beaker of treated tap water, monitored daily for bloom death; format: in vivo, rose; conditions: for Average Flower Life: 5 per beaker
# Procedure: In the following examples, test were conducted with fresh red roses obtained from a single source. The stems were cut (under water) and, for each experimental test, 5 roses were placed in a beaker. The same person monitored the flowers every day (the criterion for bloom death was that the monitor would have discarded the roses if the roses were in the monitor's home). Thereafter, the average flower life in days was calculated for each experimental condition.
# Five beakers of 800 ml tap water containing 0, 2, 5, 10 and 15 ppm chlorine dioxide were used for these tests.
# Example 1 was repeated using tap water alone, tap water containing 5 ppm chlorine dioxide, tap water containing “Aquaplus®” and tap water containing 5 ppm chlorine dioxide and “Aquaplus®”. “Aquaplus®” is described as a fresh flower nutrient and water clarifier and was obtained from Syndicate Sales, Kokomo, Ind.
# [2] = Spectroscopic evaluation of the flower water for chlorine dioxide; format: physicochemical; conditions: third day of the tests; uncovered beakers, tap water
# Text: As may be seen from the results set forth in Table 1, the roses in the beaker containing no chlorine dioxide had the shortest lifetime. […] Roses with less or more chlorine dioxide had intermediate lifetimes. […] This was not surprising since the beakers were uncovered and chlorine dioxide could readily escape or decompose.
smiles,measurement,setting,value
"[O][Cl+][O-] [Chlorine Dioxide, chlorine dioxide]",Average Flower Life,[1]; 2 ppm chlorine dioxide in 800 ml tap water,5.6 days
same,Change of lifetime of the roses compared to no chlorine dioxide / plain water control,[1]; 5 ppm chlorine dioxide,approximately doubled
same,Average Flower Life,[1]; 5 ppm chlorine dioxide in 800 ml tap water,7.8 days
same,Average Flower Life,[1]; 10 ppm chlorine dioxide in 800 ml tap water,5.8 days
same,Average Flower Life,[1]; 15 ppm chlorine dioxide in 800 ml tap water,5.8 days
same,Flower Lifetime,"[1]; Example 2, tap water containing 5 ppm ClO2",7.8 days
same,Chlorine dioxide present in the flower water,[2],no chlorine dioxide was present
